Molecules are shown by their SMILES.

The assay is described as follows: Degree of premature breaking of hair, tensile test. As to conditions: parameter R; natural African hair immersed three days at 40° C. in composition of 5% by weight compound and 95% water, no final rinsing; hairs 30 mm, pulled at 10 mm/minute; untreated control 0.27. The method, then:
The hair used for the following tests was regulated beforehand in a glove box at 25° C. and 45% relative humidity for about 24 hours. This was natural curly African hair.
The four abovementioned compounds were respectively formulated in the form of a composition comprising 5% by weight of the compound under consideration and 95% by weight of water relative to the total weight of the composition.
Four batches of natural African hair were treated, respectively, with each of the four compositions according to the following protocol: the hair is immersed for three days at 40° C. in the composition under consideration, without final rinsing, and its degree of premature breaking is then assessed by comparison with that of a batch of untreated natural control hair.
The degree of premature breaking of the hair is characterized by the following parameter R:
R=1−(number of hairs showing breakage under tension in the hardening zone/N),
N being the total number of hairs tested.
The corresponding mechanical tests are performed using a Zwicko tensile testing machine on hairs 30 mm long. The hairs were pulled at a speed of 10 mm/minute.
For the molecule `CC(O)C[C@@H]1OC[C@@H](O)[C@H](O)[C@H]1O` (stereo partly drawn) [Compound 1, C-β-D-xylopyranoside-2-hydroxypropane], the “Degree of premature breaking” value is listed as 0.17.

`CC(=O)C[C@@H]1O[C@H](CO)[C@@H](O)[C@H](O)[C@H]1O` [Compound 4, C-β-D-glucopyranoside-n-propan-2-one]: the “Degree of premature breaking” value is 0.23.

Turning to `CC(=O)C[C@@H]1O[C@H](CO)[C@@H](O[C@@H]2O[C@H](CO)[C@H](O)[C@H](O)[C@H]2O)[C@H](O)[C@H]1O` [Compound 3, C-β-D-Lactopyranoside-n-propan-2-one], the “Degree of premature breaking” value was determined as 0.13.

In the case of `CC(=O)C[C@@H]1OC[C@@H](O)[C@H](O)[C@H]1O` [Compound 2, C-β-D-Xylopyranoside-n-propan-2-one], the “Degree of premature breaking” value is reported as 0.20.

For the origin of these results see US20080153760A1, “Haircare Use Of C-Glycoside Derivatives” (L'OREAL, priority 2005, published 2008).
